Where two headings read alike, the source gives them in different places.
Test system: MDA-MB-231 cells
Assay: LPS-mediated DOX resistance, AlamarBlue cell viability assay
Assay type: cell-based
Details: Homo sapiens
Protocol: LPS ability to mediate DOX-resistance was examined to simulate the MDR phenotype of MDA-MB-231. Herein, there is compared the sensitivity of non-stimulated MDA-MB-231 cells and LPS-stimulated cells at an optimized migratory concentration of LPS (20 µg/mL) to DOX treatment. AlamarBlue cell viability assay was used to evaluate the ability of LPS activation to induce DOX resistance. […] On the contrary, LPS-stimulated cells were 64±4% viable after 24 hr of DOX-treatment. Remarkably, pretreatment with LPS for 24 hr was clearly able to reduce chemosensitivity, lessen DOX cytotoxicity, and increase cell survival approximately to 6-fold (p-value <0.0005) after 48 hr treatment. These quantitative results provide strong evidence of inflammation-based MDR mechanism specifically to DOX treatment in MDA-MB-231 cells.
MDA-MB-231 cells were plated out in 96-well tissue culture plates at 1 ×10^4 cells per well and treated with or without LPS at concentration of (20 µg/mL) for 24 hr. Cells were then left untreated or treated simultaneously with (0.67 µg/mL) of the chemotherapeutic drug (DOX) and various doses of CS-TPP-HA-AGP NPs (50, 100, and 300 µg/ml). After further incubation for 48 or 72 hr, Cells were subjected to AlamarBlue cell viability assay. […] Fluorescence spectra were recorded at λex:550, λem:600 using BioTek Cytation 5™ multi-mode Microplate Reader-Gen5™ software.

COc1cccc2c1C(=O)c1c(O)c3c(c(O)c1C2=O)C[C@@](O)(C(=O)CO)C[C@@H]3O[C@H]1C[C@H](N)[C@H](O)[C@H](C)O1 [DOX, doxorubicin]
viability at 0.67 µg/mL (MDA-MB-231, 24 h, read-out: cell viability): 64 ± 4% | viability at 0.67 µg/mL (MDA-MB-231, read-out: cell viability): 11 ± 10%

Reference: patent publication US20230248659A1, “IMMUNE SUPPRESSING NANOPARTICLES FOR ROBUST SENSITIZATION OF DRUG-RESISTANT CANCER” (King Abdulaziz City for Science and Technology ( KACST), priority 2021, published 2023)
